# Measurements as given in ChEMBL document CHEMBL4808221, “Design and Synthesis of Novel c-di-GMP G-Quadruplex Inducers as Bacterial Biofilm Inhibitors” (J Med Chem, 2021).
# pIC50: −log10 of the molar value. Active and inactive are the calls of the source. The calls are words filed in the database; no cut-off is given here.
# Experiments:
# Pseudomonas aeruginosa = experiment: Antibacterial activity against Pseudomonas aeruginosa PAO1 harboring wspF gene mutation assessed as reduction in bacterial growth at 512 uM by crystal violet staining assay relative to control; format: functional, organism-based
# c-di-GMP G-quadruplex [1] = experiment: Induction of c-di-GMP G-quadruplex formation in Pseudomonas aeruginosa PAO1 harboring wspF gene mutation assessed as inhibition of biofilm formation at 1.25 uM incubated for 20 hrs by crystal violet staining assay relative to control; format: nucleic-acid assay
# Quadruplex DNA = experiment: Induction of c-di-GMP G-quadruplex formation (unknown origin) measured at 300 nanometer by CD spectroscopy; format: nucleic-acid assay
# c-di-GMP G-quadruplex [2] = experiment: Induction of c-di-GMP G-quadruplex formation in Pseudomonas aeruginosa PAO1 harboring wspF gene mutation assessed as inhibition of biofilm formation incubated for 20 hrs by crystal violet staining assay relative to control; format: nucleic-acid assay
Compound,Activity (Pseudomonas aeruginosa),inhibition (c-di-GMP G-quadruplex [1]) [%],Activity (Quadruplex DNA),pIC50 (c-di-GMP G-quadruplex [2])
C[n+]1c(/C=C/c2ccc(O)cc2)sc2ccccc21,inactive,10.5,Active,< 4.00
C[n+]1c(/C=C/c2ccc(O)c(F)c2)sc2ccccc21,inactive,-7.67,inactive,< 4.00
C[n+]1c(/C=C/c2ccc(N3CCOCC3)cc2)ccc2ccccc21,inactive,1.18,inactive,< 4.00
C[n+]1c(/C=C/c2ccc(O)c(F)c2)ccc2ccccc21,inactive,4.21,inactive,< 4.00
C[n+]1c(/C=C/c2ccc(F)cc2)ccc2ccccc21,inactive,21.3,,< 4.00
C[n+]1c(/C=C/c2ccc(N)cc2)sc2ccccc21,inactive,14.5,,< 4.00
COc1ccc(/C=C/c2ccc3ccccc3[n+]2C)cc1,inactive,-9.62,inactive,< 4.00
C[n+]1c(/C=C/c2ccc(N)cc2)ccc2ccccc21,inactive,2.11,Active,< 4.00
CN1CCN(c2ccc(/C=C/c3sc4ccccc4[n+]3C)cc2)CC1,inactive,,inactive,< 4.00
C[n+]1c(/C=C/c2ccncc2)sc2ccccc21,inactive,,inactive,< 4.00
CN(C)c1ccc(/C=C/c2ccc3ccccc3[n+]2C)cc1,inactive,,inactive,< 4.00
C[n+]1c(/C=C/c2ccc(O)cc2)ccc2ccccc21,inactive,13.4,Active,< 4.00
CN1CCN(c2ccc(/C=C/c3ccc4ccccc4[n+]3C)cc2)CC1,inactive,-2.34,inactive,< 4.00
C[n+]1c(/C=C/c2ccccc2)sc2ccccc21,inactive,19.5,inactive,< 4.00
C[n+]1c(/C=C/c2cc[nH]c2)ccc2ccccc21,inactive,22.2,Active,5.02
C[n+]1c(/C=C/c2ccc([N+](=O)[O-])cc2)sc2ccccc21,inactive,,,< 4.00
C[n+]1c(/C=C/c2ccc(N3CCOCC3)cc2)sc2ccccc21,inactive,2.71,inactive,< 4.00

Compound,Activity (Pseudomonas aeruginosa),inhibition (c-di-GMP G-quadruplex [1]) [%],Activity (Quadruplex DNA),pIC50 (c-di-GMP G-quadruplex [2])
C[n+]1c(/C=C/c2ccncc2)ccc2ccccc21,inactive,13,inactive,< 4.00
C[n+]1c(/C=C/c2cnccn2)sc2ccccc21,inactive,11.4,inactive,< 4.00
C[n+]1c(/C=C/c2cc(Br)c(O)c(Br)c2)ccc2ccccc21,inactive,,inactive,
C[n+]1c(/C=C/c2ccc(F)cc2)sc2ccccc21,inactive,7.72,,< 4.00
C[n+]1c(/C=C/c2cccc(O)c2)ccc2ccccc21,inactive,29.4,Active,5.17
C[n+]1c(/C=C/c2cc(Br)c(O)c(Br)c2)sc2ccccc21,inactive,,inactive,< 4.00
C[n+]1c(/C=C/c2cnccn2)ccc2ccccc21,inactive,8.36,Active,< 4.00
C[n+]1c(/C=C/c2ccc(Br)cc2)sc2ccccc21,inactive,-4.77,,< 4.00
C[n+]1c(/C=C/c2ccccc2)ccc2ccccc21,inactive,18.8,inactive,< 4.00
C[n+]1c(/C=C/c2cc[nH]c2)sc2ccccc21,inactive,17.7,Active,5.11
C[n+]1c(/C=C/c2ccc([N+](=O)[O-])cc2)ccc2ccccc21,inactive,,,< 4.00
CN(C)c1ccc(/C=C/c2sc3ccccc3[n+]2C)cc1,inactive,-2.67,inactive,< 4.00
COc1ccc(/C=C/c2sc3ccccc3[n+]2C)cc1,inactive,-4.78,inactive,< 4.00
C[n+]1c(/C=C/c2ccc(Br)cc2)ccc2ccccc21,inactive,,,< 4.00
COc1cc(/C=C/c2ccc3ccccc3[n+]2C)ccc1O,inactive,21,Active,5.27
C[n+]1c(/C=C/c2ccc(O)c(O)c2)sc2ccccc21,inactive,21.7,Active,4.94
